Data reported in ChEMBL document CHEMBL1201862, “PubChem BioAssay data set” (2004).
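The compound was tested at five concentrations on cells cultured in 96-well plates, with a 48-hour exposure period. GI50 marks 50% less growth.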 The source made the active and inactive calls. Cut-off read from the data, not from the text of the source: active = GI50 up to about 1.1 µM and inactive = higher.

Experiments:
Test in all cases: DTP human tumour cell line panel, 48 h
[1] = tested on: HOP-92
[2] = tested on: Hs-578T
[3] = tested on: HCC 2998
[4] = tested on: 786-0
[5] = tested on: IGROV-1
[6] = tested on: HCT-116
[7] = tested on: SR
[8] = tested on: SF-268
[9] = tested on: SK-MEL-5
[10] = tested on: MDA-N
[11] = tested on: NCI-H522
[12] = tested on: SK-MEL-2
[13] = tested on: UACC-257
[14] = tested on: NCI-H460
[15] = tested on: K562
[16] = tested on: M14
[17] = tested on: SN12C
[18] = tested on: SK-OV-3
[19] = tested on: SW-620

Measured: GI50

N#Cc1cc2c(n(C3OC(CO)C(O)C(O)C3O)c1=S)CCC2 (stereo not given)
inactive: [1] > 100 µM | [2] > 100 µM | [3] > 100 µM | [4] > 100 µM | [5] > 100 µM | [6] > 100 µM | [7] > 100 µM | [8] > 100 µM | [9] > 100 µM | [10] > 100 µM | [11] > 100 µM | [12] > 100 µM | [13] > 100 µM | [14] > 100 µM | [15] > 100 µM | [16] > 100 µM | [17] > 100 µM

CSc1nc(NC2CCCC2)c2cc[nH]c2n1
inactive: [1] 30.1 µM | [2] 53.1 µM | [18] > 100 µM | [3] > 100 µM | [4] 95.1 µM | [19] > 100 µM | [5] 98.2 µM | [6] 35.2 µM | [7] 22.3 µM | [8] 68.7 µM | [9] 35.2 µM | [10] 54.3 µM | [11] 66.8 µM | [13] 55.5 µM | [14] > 100 µM | [15] 32.9 µM | [16] 65 µM | [17] > 100 µM

CC1(N2CCOCC2)CC2C(=[N+]1[O-])CCC/C2=N/O (stereo not given)
inactive: [2] > 100 µM | [18] > 100 µM | [3] > 100 µM | [4] > 100 µM | [19] > 100 µM | [5] > 100 µM | [6] > 100 µM | [7] > 100 µM | [8] > 100 µM | [9] > 100 µM | [10] > 100 µM | [11] > 100 µM | [12] > 100 µM | [13] > 100 µM | [14] > 100 µM | [15] > 100 µM | [16] > 100 µM | [17] > 100 µM

CN(C)C1=Nc2ccccc2C(=S)N2CSCC12 (stereo not given)
inactive: [2] 77.3 µM | [18] > 100 µM | [3] > 100 µM | [4] 25.9 µM | [19] 34.8 µM | [5] 19.1 µM | [6] > 100 µM | [7] 17.9 µM | [8] > 100 µM | [9] > 100 µM | [10] 39.2 µM | [11] 14.6 µM | [12] > 100 µM | [13] > 100 µM | [14] 37.8 µM | [15] 12.8 µM | [16] 66.2 µM | [17] 84.5 µM

CCOC(=O)c1ccc(C(=O)/C(C(=O)OC(C)(C)C)=C2\CCCN2C)n1C
inactive: [2] > 100 µM | [18] 16.6 µM | [3] > 100 µM | [4] > 100 µM | [19] > 100 µM | [5] > 100 µM | [6] 48.5 µM | [7] 31.6 µM | [8] > 100 µM | [9] 21.3 µM | [10] 58.3 µM | [12] > 100 µM | [13] 54 µM | [14] 94.6 µM | [15] 42.1 µM | [16] 57.8 µM | [17] > 100 µM

COC(=O)c1ccc2c(c1)CC1(C2)Cc2cc3c(cc2C1=O)CCC3 (stereo not given)
inactive: [1] 28.2 µM | [2] 77.4 µM | [18] 98.6 µM | [3] 40.3 µM | [4] 53 µM | [19] 60.4 µM | [5] 44.1 µM | [6] 29.6 µM | [8] 79.6 µM | [9] 9.18 µM | [10] 21.1 µM | [11] 39.6 µM | [12] 38.8 µM | [13] 18.3 µM | [14] 37.2 µM | [15] 17.5 µM | [16] 19.2 µM | [17] 22 µM

Cc1cc(S(=O)(=O)Nc2nc3cc(-c4ccc(Cl)cc4)sc3c(=O)n2N)c(S)cc1Cl
inactive: [1] 72.9 µM | [2] > 100 µM | [18] 63.2 µM | [3] 94.4 µM | [4] 45.9 µM | [19] 39.4 µM | [5] 59.6 µM | [6] 40.3 µM | [8] 86.3 µM | [9] 51.1 µM | [10] 53.8 µM | [11] 62.4 µM | [12] 75.2 µM | [13] 65 µM | [14] 36.6 µM | [15] 32.7 µM | [16] > 100 µM | [17] 50.6 µM

O=C(Nc1ccc(Cl)cc1)C(=O)C1=C(O)c2ccccc2OC1
inactive: [1] > 100 µM | [2] > 100 µM | [18] > 100 µM | [3] > 100 µM | [4] > 100 µM | [19] > 100 µM | [5] > 100 µM | [6] > 100 µM | [8] > 100 µM | [9] > 100 µM | [10] > 100 µM | [11] > 100 µM | [12] > 100 µM | [13] > 100 µM | [14] > 100 µM | [15] > 100 µM | [16] > 100 µM | [17] > 100 µM

NC(=O)NC(=O)Nc1ccc(Br)cc1
inactive: [1] > 100 µM | [2] > 100 µM | [18] > 100 µM | [3] > 21.9 µM | [4] 20.5 µM | [19] > 11.5 µM | [5] 16.7 µM | [6] 17.3 µM | [8] > 6.93 µM | [9] 7.67 µM | [10] 50.9 µM | [11] > 25.9 µM | [12] 13.2 µM | [13] > 27.1 µM | [14] > 8.61 µM | [15] 3.3 µM | [16] 18.5 µM | [17] > 67.5 µM

CCOC(=O)/C(C#N)=C(/NNc1ccccc1)c1ccncc1C(=O)O
inactive: [1] > 100 µM | [2] > 100 µM | [18] > 100 µM | [3] > 22.4 µM | [4] > 100 µM | [19] 3.27 µM | [5] > 100 µM | [6] > 100 µM | [8] > 100 µM | [9] 9.82 µM | [10] > 40.8 µM | [11] > 100 µM | [12] > 75.2 µM | [13] 26.2 µM | [14] > 28.1 µM | [15] 3.28 µM | [16] 5.66 µM | [17] > 100 µM

N=C(N)NCCCC(NC(=O)OCCCCCn1ccc(N)nc1=O)C(=O)O (stereo not given)
inactive: [1] > 100 µM | [2] > 100 µM | [18] > 100 µM | [3] > 100 µM | [4] > 100 µM | [19] > 100 µM | [5] > 100 µM | [6] > 100 µM | [7] > 100 µM | [8] > 100 µM | [10] > 100 µM | [12] > 100 µM | [13] > 100 µM | [14] > 100 µM | [15] > 100 µM | [16] > 100 µM | [17] > 100 µM
